Data on four molecules can be found in ChEMBL document CHEMBL6109064, “Functional and structural polypharmacology of indazole-based privileged ligands to tackle the undruggability of membrane transporters” (Eur J Med Chem, 2025).

The target of series [1] is T1, Solute carrier organic anion transporter family member 1B3 (Homo sapiens, UniProt Q9NPD5).
T1 sequence (Q9NPD5 whole entry): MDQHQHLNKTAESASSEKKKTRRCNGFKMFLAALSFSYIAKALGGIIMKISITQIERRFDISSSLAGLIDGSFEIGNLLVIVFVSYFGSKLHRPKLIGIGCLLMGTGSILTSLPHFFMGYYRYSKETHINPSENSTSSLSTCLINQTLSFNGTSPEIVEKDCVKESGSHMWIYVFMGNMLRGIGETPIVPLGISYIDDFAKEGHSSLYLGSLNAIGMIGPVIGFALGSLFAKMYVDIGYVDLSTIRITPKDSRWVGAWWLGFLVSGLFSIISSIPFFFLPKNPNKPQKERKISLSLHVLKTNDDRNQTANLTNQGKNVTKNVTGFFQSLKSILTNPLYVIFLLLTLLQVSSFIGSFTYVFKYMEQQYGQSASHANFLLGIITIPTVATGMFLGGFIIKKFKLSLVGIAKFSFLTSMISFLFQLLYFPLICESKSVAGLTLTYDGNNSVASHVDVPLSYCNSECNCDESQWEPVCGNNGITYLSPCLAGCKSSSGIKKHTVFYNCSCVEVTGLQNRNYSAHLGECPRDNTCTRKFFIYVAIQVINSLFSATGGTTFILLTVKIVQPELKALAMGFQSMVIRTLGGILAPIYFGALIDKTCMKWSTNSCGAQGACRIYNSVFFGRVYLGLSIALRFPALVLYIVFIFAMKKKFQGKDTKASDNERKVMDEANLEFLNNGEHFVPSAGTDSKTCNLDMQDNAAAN
Description: Inhibition of OATP1B3 (unknown origin) transfected in human A-431 cells assessed as inhibition of DHPDS uptake preincubated for 5 mins followed by DHPDS addition and measured after 10 mins by fluorescence based analysis. It counts as cell-based.

The target in series [2] is T2, Monocarboxylate transporter 1 (Homo sapiens, UniProt P53985).
T2 sequence (P53985 whole entry): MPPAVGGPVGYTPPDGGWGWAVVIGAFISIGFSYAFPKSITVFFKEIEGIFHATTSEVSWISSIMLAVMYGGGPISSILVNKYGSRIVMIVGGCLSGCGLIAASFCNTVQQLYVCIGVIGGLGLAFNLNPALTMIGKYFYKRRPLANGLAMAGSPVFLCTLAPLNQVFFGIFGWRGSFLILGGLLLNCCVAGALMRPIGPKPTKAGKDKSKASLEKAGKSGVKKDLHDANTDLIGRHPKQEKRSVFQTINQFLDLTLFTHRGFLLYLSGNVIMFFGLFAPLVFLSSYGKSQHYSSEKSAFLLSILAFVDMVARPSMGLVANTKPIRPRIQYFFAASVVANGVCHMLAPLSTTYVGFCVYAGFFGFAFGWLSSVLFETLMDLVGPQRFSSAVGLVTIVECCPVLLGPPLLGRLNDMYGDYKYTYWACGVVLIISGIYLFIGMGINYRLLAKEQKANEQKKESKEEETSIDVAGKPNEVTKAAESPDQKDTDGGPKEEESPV
As to the kind of experiment: Inhibition of MCT-1 in human A549 cells assessed as potentiation of 3-BP-mediated cytotoxicity by measuring decrease in cell viability incubated for 72 hrs in presence of 3-BP by MTT assay. It counts as cell-based. In general terms: Formazan colour is commonly taken as a measure of viable cells.

The nature of series [3]: Inhibition of ABCA1 (unknown origin) expressed in mouse J774.A1 cells assessed as inhibition of 25-NBD-cholesterol fluorescence intensity preincubated for 24 hrs followed by 25-NBD-cholesterol addition and measured after 48 hrs by flow cytometry. It counts as cell-based, Homo sapiens. For orientation: Flow cytometry measures light scatter and fluorescence of single cells or particles in a stream.

The subject of another series is MDA-MB-231. As to the kind of experiment: Cytotoxicity against human MDA-MB-231 cells assessed as inhibition of cell growth by MTT assay. Type of series: functional.
For the next series, the system named is A549. As to the kind of experiment: Cytotoxicity against MCT1 expressing human A549 cells assessed as inhibition of cell growth incubated for 72 hrs by MTT assay. Type of series: functional.
For series [4], the target named is T3, Monocarboxylate transporter 4 (Homo sapiens) (UniProt O15427).
T3 sequence (whole entry): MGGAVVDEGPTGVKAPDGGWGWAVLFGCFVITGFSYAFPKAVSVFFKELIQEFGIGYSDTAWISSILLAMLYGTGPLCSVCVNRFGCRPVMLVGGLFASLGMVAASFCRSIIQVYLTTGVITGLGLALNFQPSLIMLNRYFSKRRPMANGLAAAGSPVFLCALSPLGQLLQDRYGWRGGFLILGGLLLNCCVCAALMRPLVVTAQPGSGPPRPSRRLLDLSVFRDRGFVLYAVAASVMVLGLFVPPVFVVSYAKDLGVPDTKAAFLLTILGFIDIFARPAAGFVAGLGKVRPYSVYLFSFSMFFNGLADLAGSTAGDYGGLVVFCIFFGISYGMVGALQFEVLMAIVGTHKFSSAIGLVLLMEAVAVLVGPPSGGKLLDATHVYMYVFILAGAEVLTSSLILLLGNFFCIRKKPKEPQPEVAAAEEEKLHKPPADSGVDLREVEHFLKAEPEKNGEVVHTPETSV
Description: Reversal of MCT4-mediated multidrug resistance in human MDA-MB-231 cells assessed as fold increase in doxorubicin-mediated cytotoxicity incubated for 72 hrs in presence of doxorubicin by MTT assay relative to control. Type of series: cell-based.

Series [5] concerns the target T4, Broad substrate specificity ATP-binding cassette transporter ABCG2 (Homo sapiens, UniProt Q9UNQ0).
T4 sequence (Q9UNQ0 whole entry): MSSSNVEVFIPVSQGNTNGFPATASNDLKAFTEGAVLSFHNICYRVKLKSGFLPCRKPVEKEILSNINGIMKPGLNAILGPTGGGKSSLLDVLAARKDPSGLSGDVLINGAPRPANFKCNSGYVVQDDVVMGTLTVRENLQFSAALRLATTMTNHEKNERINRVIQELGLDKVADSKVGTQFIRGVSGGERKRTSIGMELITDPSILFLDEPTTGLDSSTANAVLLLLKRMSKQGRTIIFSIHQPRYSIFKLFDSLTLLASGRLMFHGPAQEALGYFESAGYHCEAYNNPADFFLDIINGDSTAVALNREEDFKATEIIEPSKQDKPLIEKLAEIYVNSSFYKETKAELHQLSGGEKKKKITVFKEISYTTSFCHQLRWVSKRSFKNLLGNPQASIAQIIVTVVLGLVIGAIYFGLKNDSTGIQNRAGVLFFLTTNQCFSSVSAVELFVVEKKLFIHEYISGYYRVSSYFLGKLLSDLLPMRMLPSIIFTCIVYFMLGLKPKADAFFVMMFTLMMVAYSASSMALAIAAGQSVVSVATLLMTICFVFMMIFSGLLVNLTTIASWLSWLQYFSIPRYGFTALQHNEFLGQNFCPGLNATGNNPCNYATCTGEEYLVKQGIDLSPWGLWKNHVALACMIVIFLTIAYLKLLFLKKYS
As to the kind of experiment: Ratio of IC50 for inhibition of ABCG2 (unknown origin) expressed in dog MDCK-II-BCRP cells using Hoechst 33342 as tracer to EC50 for reversal of ABCG2 (unknown origin)-mediated multidrug resistance transfected in dog MDCK-II-BCRP cells in presence of SN-38. It counts as cell-based.

In series [6] the target is T4, Broad substrate specificity ATP-binding cassette transporter ABCG2. Description: Ratio of IC50 for inhibition of ABCG2 (unknown origin) expressed in dog MDCK-II-BCRP cells using pheophorbide as tracer to EC50 for reversal of ABCG2 (unknown origin)-mediated multidrug resistance transfected in dog MDCK-II-BCRP cells in presence of SN-38. Type of series: cell-based.

What is called IC50 is the concentration that inhibits the measured activity by half. `COc1cccc(NC(=O)Cn2nc(C(=O)Nc3cccc(OC)c3)c3ccccc32)c1`: the half-inhibitory concentration (IC50) in series [1] is 2.29 µM; in series [2], “Not_active”; in series [3] it was “Not_active”.

The GI50 is the concentration at which growth is held to half of that of the control. On to `O=C(Cn1nc(C(=O)Nc2cccnc2)c2ccccc21)Nc1ccc(Cl)cc1`, for which the GI50 in the series on MDA-MB-231 amounted to 30 µM; in the series on A549, 28.6 µM. The fold change (FC) in series [4] was found to be 3.85. Besides, the “Ratio IC50/EC50” value in series [5] is listed as above 5; in series [6] it was above 13. The values for the IC50 in series [1] and in series [3] (read-out: IC50) were 1.84 µM and 4.7 µM, respectively.

For the molecule `COc1cccc(NC(=O)c2nn(CC(=O)Nc3ccccc3OC)c3ccccc23)c1`, the IC50 in series [1] was 1.8 µM; in series [2], “Not_active”; in series [3] it was “Not_active”.

Consider `O=C(Cn1nc(C(=O)Nc2ccccn2)c2ccccc21)Nc1cc(Cl)ccc1Cl`, for which the concentration for 50% growth inhibition (GI50) with MDA-MB-231 came out at 29.9 µM; in the series on A549 it was 37.1 µM. The fold change (FC) in series [4] stood at 3.52. Besides, the IC50 in series [1] is 14.1 µM; in series [3] (read-out: IC50), 13 µM.
